Data on 68 molecules can be found in ChEMBL document CHEMBL3507680, “University of Dundee, Gates Library screen for HepG2 cell viability”.

The structures appear in SMILES notation.

The data set can be described thus: Human HepG2 cell viability assay in 384 well format. The class given is toxicity, cell-based. Also on record: dose 125 nL, time 70.5 hour; concentration not given beside the values. The settings on record: HepG2 cells, read-out: Inhibition.
Turning to `CCC[C@H]1CN(S(C)(=O)=O)C[C@@H]1NC(=O)Cc1ccc(OC)cc1`, the cytotoxicity at 70.5 h was 9.24%.

As for `Cc1nsc(NC(=O)N2CCc3sccc3C2)n1`, the cytotoxicity at 70.5 h is -7.28%.

For the molecule `C[C@@H]1CN(C2CCN(c3ccccc3F)CC2)CC[C@]1(C)O`, the cytotoxicity at 70.5 h was -5.09%.

Take `CN1CCC(N(CCc2ccccc2)C(=O)c2cc[nH]c2)CC1`: the cytotoxicity at 70.5 h is -7.32%.

In the case of `CC(C)NC(=O)N1CCCC(Cn2cc(-c3ccc(F)cc3)nn2)C1` (stereo not drawn), the cytotoxicity at 70.5 h came to 23.4%.

Take `O[C@@H]1CN(c2cnc3ccccc3n2)CC[C@H]1c1ccc2c(c1)OCO2`: the cytotoxicity at 70.5 h was 21%.

With `Cc1ncsc1CCN(C)C(=O)c1ccc(Cn2cnnn2)cc1`, the cytotoxicity at 70.5 h was determined as 3.1%.

For the molecule `COc1cccc(CN2C[C@H]3CC[C@H]2C3)c1OCCN1CCOCC1`, the cytotoxicity at 70.5 h is -2.04%.

Consider `Cc1cnc(N(C)CCCc2cnn(C)c2)nc1N(C)C`, for which the cytotoxicity at 70.5 h amounted to 14.8%.

Regarding `CCn1nc(C)c(C(C)Nc2cc(C3CCNCC3)nc(C)n2)c1C` (stereo not drawn), the cytotoxicity at 70.5 h was -23.1%.

For the molecule `O=C(c1ccncc1)N1CCC(Oc2cccc(C(F)(F)F)c2)CC1`, the cytotoxicity at 70.5 h was -5.79%.

As to `Cc1ccc(C(=O)NCCC2CN(C3CCCC3)CCO2)c(C)c1` (stereo not drawn), the cytotoxicity at 70.5 h is -4.25%.

For the molecule `Cc1cc(C(=O)N2C[C@H](CO)C[C@H](CN3CCOCC3)C2)cnc1C`, the cytotoxicity at 70.5 h is 14.5%.

Take `Cc1oc(-c2ccoc2)nc1CN1CCCCC1CCn1cccn1` (stereo not drawn): the cytotoxicity at 70.5 h is -3.32%.

As for `Cc1cccc(N2CCN(CCC(=O)NCc3ccc(C)s3)CC2)c1`, the cytotoxicity at 70.5 h is 20.7%.

In the case of `CCN(C)S(=O)(=O)N1C[C@@H]2CC[C@H](C1)N(Cc1cscn1)C2=O`, the cytotoxicity at 70.5 h was -8.95%.

`CC(C)Cc1cn(C2CCN(C(C)CC3CC3)CC2)nn1` (stereo not drawn): the cytotoxicity at 70.5 h is -0.853%.

Take `CNC(=O)c1n[nH]c2c1C(c1cccc3c1OC(C)(C)C3)CC(=O)N2` (stereo not drawn): the cytotoxicity at 70.5 h is -1.8%.

Take `CCc1nccn1CC(=O)N1CCN(C2CCc3ccccc3C2)CC1` (stereo not drawn): the cytotoxicity at 70.5 h was -13.3%.

For the molecule `Cc1ccc(-c2ccnc(N[C@H]3COC[C@@H]3N3CCCCC3)n2)c(C)n1`, the cytotoxicity at 70.5 h is -11.2%.

As to `COc1ccc2c(CN3CCCN(Cc4ccncc4)CC3)n[nH]c2c1`, the cytotoxicity at 70.5 h was -1.17%.

As for `O=c1n(CC2CCCCO2)nc(CC2CCNCC2)n1-c1ccccc1` (stereo not drawn), the cytotoxicity at 70.5 h was -6.56%.

Consider `CCCN(Cc1cccnc1)C(=O)C1CCS(=O)(=O)CC1`, for which the cytotoxicity at 70.5 h worked out at 6.55%.

Turning to `Cn1c(Cn2ccnc2)nnc1C1CCCN(c2ncccn2)C1` (stereo not drawn), the cytotoxicity at 70.5 h was -9.36%.

Consider `O=C(CCC1CCN(Cc2ccncc2)CC1)Nc1ccccc1Cl`, for which the cytotoxicity at 70.5 h was found to be 0.0549%.

For `O=C1NCC2(CCCN(C(=O)Nc3ccc4scnc4c3)CC2)O1` (stereo not drawn), the cytotoxicity at 70.5 h was -16.7%.

Regarding `COCCc1ncc(CN2C[C@H](C3CC3)[C@@H](N)C2)cn1`, the cytotoxicity at 70.5 h is -8.11%.

Consider `Cc1cnc(C(=O)N2CCN(C(=O)CC(C)C)[C@@H]3CS(=O)(=O)C[C@@H]32)cn1`, for which the cytotoxicity at 70.5 h is -7.52%.

As for `CCOCCn1nc(C)cc1C(=O)N1CCC2(CC1)[C@H](O)C[C@@H]2OCC`, the cytotoxicity at 70.5 h was found to be 0.508%.

As to `COc1cccc(CC2CN(C3CCCCC3)CCO2)c1` (stereo not drawn), the cytotoxicity at 70.5 h was determined as 25.1%.

Consider `N#Cc1ccccc1C(=O)N1C[C@@H](CN2CCOCC2)[C@@H](CO)C1`, for which the cytotoxicity at 70.5 h was -12%.

As to `CC(=O)Nc1ccsc1C(=O)Nc1cnc2n1CCCC2`, the cytotoxicity at 70.5 h was -4.21%.

For `CC(=O)c1ccc(N2CCN(C(=O)c3cc(C(C)C)nn3C)CC2)cc1`, the cytotoxicity at 70.5 h is -14.7%.

With `CCCOc1ccc(Cl)cc1CNc1ncnc2oc(C)nc12`, the cytotoxicity at 70.5 h was -6.3%.

Consider `CN1CCN(S(=O)(=O)c2ccc3c(c2)CN(C(=O)C(C)(C)C)CC3)CC1`, for which the cytotoxicity at 70.5 h was -2.56%.

`Cc1nc(CN2CCCC(CCc3cccc(C(F)(F)F)c3)C2)co1` (stereo not drawn): the cytotoxicity at 70.5 h was -3.79%.

For the molecule `CN1CCCN(C[C@@H]2CN(C(=O)CCc3cn[nH]c3)C[C@@H]2CO)CC1`, the cytotoxicity at 70.5 h was -3.81%.

With `O=C(NC1CCCC1)c1cc(Cn2cnc3ccccc32)on1`, the cytotoxicity at 70.5 h is -1.14%.

With `CCN(CC1CCCCO1)C(=O)CCNC(=O)c1ccccc1F` (stereo not drawn), the cytotoxicity at 70.5 h was -11.6%.

With `CN(C)c1ccccc1C(=O)N1CCCC(c2ccc(C(=O)O)cc2)C1` (stereo not drawn), the cytotoxicity at 70.5 h is -17.2%.

For the molecule `COc1ccccc1-n1nc(CC(C)C)nc1Cc1nnc(N)s1`, the cytotoxicity at 70.5 h was 5.97%.

`COc1cccc2c1OCC(C(=O)NCCCn1nc(C)c(Cl)c1C)C2` (stereo not drawn): the cytotoxicity at 70.5 h is -7.76%.

Consider `Cc1cccc(CN2C(=O)OCC2CO)c1F` (stereo not drawn), for which the cytotoxicity at 70.5 h is 14.6%.

Turning to `CCCC(=O)N1CCC(N2CC[C@@](O)(CCOC)[C@H](C)C2)CC1`, the cytotoxicity at 70.5 h is -5%.

On to `CNc1nc(C(=O)NCC2CCOc3ccccc3C2)cs1` (stereo not drawn), for which the cytotoxicity at 70.5 h was found to be 15.5%.

Regarding `CCc1ccc(CN2CCC(CNC(=O)c3ccc(C)nc3)C2)nc1` (stereo not drawn), the cytotoxicity at 70.5 h came to 16%.

Turning to `CCC1(CO)CCCN(C(=O)c2cc(COc3ccccc3F)[nH]n2)C1` (stereo not drawn), the cytotoxicity at 70.5 h is -0.863%.

Turning to `CCc1c(O)nc(SCC(=O)N(CC)CC)n(C(C)CC)c1=O` (stereo not drawn), the cytotoxicity at 70.5 h was -0.0297%.

Consider `CCCNC(=O)c1ccc(S(=O)(=O)NCC2(COC)CCCC2)cc1`, for which the cytotoxicity at 70.5 h was -4.17%.

On to `CCc1c(O)nc(SC(C)CC)n(-c2ccccc2)c1=O` (stereo not drawn), for which the cytotoxicity at 70.5 h was -7.78%.

Take `COc1cccc(-c2cnnc(N(C)CCC3CCCCO3)n2)c1` (stereo not drawn): the cytotoxicity at 70.5 h was found to be 0.0165%.

In the case of `c1ccc(CCN2CCCC(Cn3ccnc3)C2)cc1` (stereo not drawn), the cytotoxicity at 70.5 h is -10.4%.

As for `CC(C)c1cc(CN(C)C(=O)CN2CCCCC2=O)no1`, the cytotoxicity at 70.5 h was 13.9%.

In the case of `Cc1nc(C)n(CC(C)C(=O)N2CCC(CN3CCOCC3)CC2)n1` (stereo not drawn), the cytotoxicity at 70.5 h was 4.58%.

On to `Cc1nc(O)cc(CN2C[C@H](NC(=O)C3CCCC3)[C@@H](C3CC3)C2)n1`, for which the cytotoxicity at 70.5 h was -9.17%.

In the case of `CN(C)CCCn1ccnc1C1CCN(c2cccc(C(=O)O)n2)CC1`, the cytotoxicity at 70.5 h was -5.15%.

Take `CCc1nn(C)c(Cl)c1CN1C[C@H](NC(=O)CCO)[C@@H](C(C)C)C1`: the cytotoxicity at 70.5 h is -5.11%.

On to `CSc1cccc(CN(C)C(=O)CN2CCN(c3ncccn3)CC2)c1`, for which the cytotoxicity at 70.5 h was -8.23%.

For the molecule `O=C(c1ccccc1-c1nnn[nH]1)N1CCOC(C(F)(F)F)C1` (stereo not drawn), the cytotoxicity at 70.5 h was -9.42%.

`O=C1NCCCc2[nH]c(Cc3cccc(F)c3)nc21`: the cytotoxicity at 70.5 h was -8.57%.

Take `O=C(CN1CCCC1c1nc(-c2ccccn2)no1)N1CCNCC1` (stereo not drawn): the cytotoxicity at 70.5 h is -4.93%.

As to `Cc1cc(C(=O)N2CCCC3(C=Cc4ccccc4O3)CC2)cc(=O)[nH]1` (stereo not drawn), the cytotoxicity at 70.5 h was -7.57%.

On to `CCN(CC1CCOCC1)C(=O)C1CC(=O)N(Cc2cccnc2)C1` (stereo not drawn), for which the cytotoxicity at 70.5 h is -5.23%.

With `O=C(CC1CCc2ccccc21)N1CCC(O)(Cn2ccnc2)CC1` (stereo not drawn), the cytotoxicity at 70.5 h was -5.64%.

With `CCNc1ncc(C(=O)N[C@H]2CC[C@H](n3cnnc3)CC2)cn1`, the cytotoxicity at 70.5 h was -1.33%.

Regarding `Cc1sc2nc(CCN)nc(N3CCS(=O)(=O)CC3)c2c1C`, the cytotoxicity at 70.5 h was -0.146%.

In the case of `CCCN1CCN(C(=O)Nc2ccccc2Cl)[C@H]2CS(=O)(=O)C[C@H]21`, the cytotoxicity at 70.5 h is -4.21%.

With `CCCc1cc(C(=O)N[C@H](C)[C@@H](O)c2ccc(O)cc2)n(C)n1`, the cytotoxicity at 70.5 h is -11.6%.
